Columns and labels:
Xf = conditions: cited from earlier work
Erwinia amylovora = conditions: cited from earlier work
[1] = system: Pseudomonas syringae pv. syringae; conditions: cited from earlier work
[2] = system: Xanthomonas axonopodis pv. vesicatoria; conditions: cited from earlier work
Xff strain Temecula = assay type: cell-based, Xylella fastidiosa subsp. fastidiosa

## magainin II
Xf
  MIC or MBC against Xf: 8 to 64 µg/mL

## gomesin
Xf
  MIC or MBC against Xf: 4.5 to 9 µg/mL

## KDWEHLKDWEHLKDWEHL-OH [tag54]
Erwinia amylovora
  MIC Ea: > 100 µM
[1]
  MIC Psa: > 100 µM
[2]
  MIC Xav: > 100 µM
Xff strain Temecula
  Log N0/N (log reduction of Xff cell viability): 0 ± 0 log
  antimicrobial activity against Xff cells (in words): did not show antimicrobial activity

## dermaseptin
Xf
  MIC or MBC against Xf: 8 to 32 µg/mL

From paper PMC7392676 (BMC Microbiology, 2020)
